In patent US12479840B2, “HMG-CoA reductase degradation inducing compound” (Uppthera, priority 2020, dated 2025) one finds DC50 data, which are given here for twelve compounds.

The experiment deals with T1, HMG-CoA reductase (Homo sapiens, UniProt P04035).
T1 construct: endogenous in cells; host or cells: HepG2 (Korea Cell Line Bank)
T1 sequence (P04035 1-888): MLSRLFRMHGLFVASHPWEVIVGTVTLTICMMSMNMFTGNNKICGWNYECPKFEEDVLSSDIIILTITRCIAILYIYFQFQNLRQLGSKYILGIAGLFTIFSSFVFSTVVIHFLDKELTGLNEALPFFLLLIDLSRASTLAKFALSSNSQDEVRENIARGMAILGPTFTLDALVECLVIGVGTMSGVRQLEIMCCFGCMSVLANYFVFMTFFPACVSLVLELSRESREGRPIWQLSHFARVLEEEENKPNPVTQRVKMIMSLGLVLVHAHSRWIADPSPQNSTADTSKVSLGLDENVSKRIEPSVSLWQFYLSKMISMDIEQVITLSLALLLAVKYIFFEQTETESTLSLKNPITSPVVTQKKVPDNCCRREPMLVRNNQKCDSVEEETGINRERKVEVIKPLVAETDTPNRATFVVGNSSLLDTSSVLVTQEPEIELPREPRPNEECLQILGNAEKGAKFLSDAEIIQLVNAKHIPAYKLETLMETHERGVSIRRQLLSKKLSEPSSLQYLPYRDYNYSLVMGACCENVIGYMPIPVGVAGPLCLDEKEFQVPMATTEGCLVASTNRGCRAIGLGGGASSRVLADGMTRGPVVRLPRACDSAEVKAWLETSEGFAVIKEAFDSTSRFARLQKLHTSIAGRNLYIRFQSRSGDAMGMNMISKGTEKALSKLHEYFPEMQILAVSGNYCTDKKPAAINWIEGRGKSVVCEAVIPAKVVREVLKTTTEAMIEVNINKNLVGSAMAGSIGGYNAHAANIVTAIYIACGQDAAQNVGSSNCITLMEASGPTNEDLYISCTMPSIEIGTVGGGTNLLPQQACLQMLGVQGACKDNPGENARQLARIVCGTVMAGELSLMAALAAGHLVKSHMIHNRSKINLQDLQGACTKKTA
As to the kind of experiment: HMG-CoA reductase (HMGCR) degradation in HepG2 cells by western blotting. It is filed as cell-based. The settings on record: treated for 18 hours, ratio of HMG-CoA reductase to GAPDH, read-out: DC50. In a few lines: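 HepG2 cells (passage P105–P110) treated 18 hours with compounds in 10-point three-fold dilutions from 3 μM. RIPA lysates (15 μg protein, BCA-quantified) run on SDS-PAGE and immunoblotted for HMGCR (1:500) with GAPDH (1:20000) as loading control, primary antibodies 16 hours at 4° C.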
A general note: Immunoblotting shows a protein as a band on a membrane.
As to `C[C@H]1C=C2C=C[C@H](C)[C@H](CC[C@@H]3C[C@@H](O)CC(=O)O3)[C@H]2[C@@H](OC(=O)C(C)(C)CCC(=O)NCCOCCOCCOCCOCCNc2cccc3c2C(=O)N(C2CCC(=O)NC2=O)C3=O)C1` (stereo partly drawn) [Compound 4, (1S,3R,7S,8S,8aR)-8-(2-((2R,4R)-4-hydroxy-6-oxotetrahydro-2H-pyran-2-yl)ethyl)-3,7-dimethyl-1,2,3,7,8,8a-hexahydronaphthalen-1-yl 1-((2-(2,6-dioxopiperidin-3-yl)-1,3-dioxoisoindolin-4-yl)amino)-19,19-dimethyl-16-oxo-3,6,9,12-tetraoxa-15-azaicosan-20-oate], the DC50 was below 50 nM. As for `Cc1ncsc1-c1ccc(CNC(=O)[C@@H]2C[C@@H](O)CN2C(=O)[C@@H](NC(=O)C2(F)CC2)C(C)(C)C)c(OCCOCCNC(=O)O[C@H]2C[C@@H](C)C=C3C=C[C@H](C)[C@H](CC[C@@H]4C[C@@H](O)CC(=O)O4)[C@H]32)c1` [Compound 23, (1S,3R,7S,8S,8aR)-8-(2-((2R,4R)-4-hydroxy-6-oxotetrahydro-2H-pyran-2-yl)ethyl)-3,7-dimethyl-1,2,3,7,8,8a-hexahydronaphthalen-1-yl (2-(2-(2-(((2S,4R)-1-((S)-2-(1-fluorocyclopropane-1-carboxamido)-3,3-dimethylbutanoyl)-4-hydroxypyrrolidine-2-carboxamido)methyl)-5-(4-methylthiazol-5-yl)phenoxy)ethoxy)ethyl)carbamate], the figure is below 50 nM. As for `Cc1ncsc1-c1ccc(CNC(=O)[C@@H]2C[C@@H](O)CN2C(=O)[C@@H](NC(=O)COCCOCCNC(=O)O[C@H]2C[C@@H](C)C=C3C=C[C@H](C)[C@H](CC[C@@H]4C[C@@H](O[Si](C)(C)C(C)(C)C)CC(=O)O4)[C@H]32)C(C)(C)C)cc1` [Compound 19, (1S,3R,7S,8S,8aR)-8-(2-((2R,4R)-4-((tert-butyldimethylsilyl)oxy)-6-oxotetrahydro-2H-pyran-2-yl)ethyl)-3,7-dimethyl-1,2,3,7,8,8a-hexahydronaphthalen-1-yl (2-(2-(2-(((S)-1-((2S,4R)-4-hydroxy-2-((4-(4-methylthiazol-5-yl)benzyl)carbamoyl)pyrrolidin-1-yl)-3,3-dimethyl-1-oxobutan-2-yl)amino)-2-oxoethoxy)ethoxy)ethyl)carbamate], the figure is below 50 nM; as for `C[C@H]1C=C2C=C[C@H](C)[C@H](CC[C@@H]3C[C@@H](O[Si](C)(C)C(C)(C)C)CC(=O)O3)[C@H]2[C@@H](OC(=O)NCCCCCCCNc2cccc3c2C(=O)N(C2CCC(=O)NC2=O)C3=O)C1` (stereo partly drawn) [Compound 53, (1S,3R,7S,8S,8aR)-8-(2-((2R,4R)-4-((tert-butyldimethylsilyl)oxy)-6-oxotetrahydro-2H-pyran-2-yl)ethyl)-3,7-dimethyl-1,2,3,7,8,8a-hexahydronaphthalen-1-yl (7-((2-(2,6-dioxopiperidin-3-yl)-1,3-dioxoisoindolin-4-yl)amino)heptyl)carbamate], below 50 nM. Take `C[C@H]1C=C2C=C[C@H](C)[C@H](CC[C@@H](O)C[C@@H](O)CC(=O)O)[C@H]2[C@@H](OC(=O)NCCOCCOCCOCCNc2cccc3c2C(=O)N(C2CCC(=O)NC2=O)C3=O)C1` (stereo partly drawn) [Compound 107, (3R,5R)-7-((1S,2S,6R,8S,8aR)-8-(((2-(2-(2-(2-((2-(2,6-dioxopiperidin-3-yl)-1,3-dioxoisoindolin-4-yl)amino)ethoxy)ethoxy)ethoxy)ethyl)carbamoyl)oxy)-2,6-dimethyl-1,2,6,7,8,8a-hexahydronaphthalen-1-yl)-3,5-dihydroxyheptanoic acid]: the DC50 was below 50 nM. Next, `C[C@H]1C=C2C=C[C@H](C)[C@H](CC[C@@H]3C[C@@H](O[Si](C)(C)C(C)(C)C)CC(=O)O3)[C@H]2[C@@H](OC(=O)NCCCOCCCOCCCNc2cccc3c2C(=O)N(C2CCC(=O)NC2=O)C3=O)C1` (stereo partly drawn) [Compound 94, (1S,3R,7S,8S,8aR)-8-(2-((2R,4R)-4-((tert-butyldimethylsilyl)oxy)-6-oxotetrahydro-2H-pyran-2-yl)ethyl)-3,7-dimethyl-1,2,3,7,8,8a-hexahydronaphthalen-1-yl (3-(3-(3-((2-(2,6-dioxopiperidin-3-yl)-1,3-dioxoisoindolin-4-yl)amino)propoxy)propoxy)propyl)carbamate]: below 50 nM; `C[C@H]1C=C2C=C[C@H](C)[C@H](CC[C@@H]3C[C@@H](O[Si](C)(C)C(C)(C)C)CC(=O)O3)[C@H]2[C@@H](OC(=O)N(C)CCOCCOCCNc2cccc3c2C(=O)N(C2CCC(=O)NC2=O)C3=O)C1` (stereo partly drawn) [Compound 82, (1S,3R,7S,8S,8aR)-8-(2-((2R,4R)-4-((tert-butyldimethylsilyl)oxy)-6-oxotetrahydro-2H-pyran-2-yl)ethyl)-3,7-dimethyl-1,2,3,7,8,8a-hexahydronaphthalen-1-yl (2-(2-(2-((2-(2,6-dioxopiperidin-3-yl)-1,3-dioxoisoindolin-4-yl)amino)ethoxy)ethoxy)ethyl)(methyl)carbamate]: below 50 nM; `C[C@H]1C=C2C=C[C@H](C)[C@H](CC[C@H]3C[C@H](O)CC(=O)O3)[C@H]2[C@@H](OC(=O)NCCOCCOCCOCC(=O)NCC(C)(C)C)C1` [Compound 13, (1S,3R,7S,8S,8aR)-8-(2-((2S,4S)-4-hydroxy-6-oxotetrahydro-2H-pyran-2-yl)ethyl)-3,7-dimethyl-1,2,3,7,8,8a-hexahydronaphthalen-1-yl (14,14-dimethyl-11-oxo-3,6,9-trioxa-12-azapentadecyl) carbamate]: above 500 nM. As for `C[C@H]1C=C2C=C[C@H](C)[C@H](CC[C@@H]3C[C@@H](O)CC(=O)O3)[C@H]2[C@@H](OC(=O)NCCCCCCCCNC(=O)COc2cccc3c2C(=O)N(C2CCC(=O)NC2=O)C3=O)C1` (stereo partly drawn) [Compound 97, (1S,3R,7S,8S,8aR)-8-(2-((2R,4R)-4-hydroxy-6-oxotetrahydro-2H-pyran-2-yl)ethyl)-3,7-dimethyl-1,2,3,7,8,8a-hexahydronaphthalen-1-yl (8-(2-((2-(2,6-dioxopiperidin-3-yl)-1,3-dioxoisoindolin-4-yl)oxy)acetamido)octyl)carbamate], the figure is 50 to 500 nM; as for `C[C@H]1C=C2C=C[C@H](C)[C@H](CC[C@@H]3C[C@@H](O)CC(=O)O3)[C@H]2[C@@H](OC(=O)C(C)(C)CCC(=O)NCCOCCOCCOCC(=O)NCC(C)(C)C)C1` [Compound 7, (1S,3R,7S,8S,8aR)-8-(2-((2R,4R)-4-hydroxy-6-oxotetrahydro-2H-pyran-2-yl)ethyl)-3,7-dimethyl-1,2,3,7,8,8a-hexahydronaphthalen-1-yl 2,2,20,20-tetramethyl-5,17-dioxo-7,10,13-trioxa-4,16-diazahenicosan-21-oate], above 500 nM. As for `C[C@H]1C=C2C=C[C@H](C)[C@H](CC[C@@H]3C[C@@H](O)CC(=O)O3)[C@H]2[C@@H](OC(=O)C(C)(C)CCC(=O)NCCOCCOCCNc2cccc3c2C(=O)N(C2CCC(=O)NC2=O)C3=O)C1` (stereo partly drawn) [Compound 2, (1S,3R,7S,8S,8aR)-8-(2-((2R,4R)-4-hydroxy-6-oxotetrahydro-2H-pyran-2-yl)ethyl)-3,7-dimethyl-1,2,3,7,8,8a-hexahydronaphthalen-1-yl 5-((2-(2-(2-((2-(2,6-dioxopiperidin-3-yl)-1,3-dioxoisoindolin-4-yl)amino)ethoxy)ethoxy)ethyl)amino)-2,2-dimethyl-5-oxopentanoate], the figure is below 50 nM. In the case of `Cc1ncsc1-c1ccc(CNC(=O)[C@@H]2C[C@@H](O)CN2C(=O)[C@@H](NC(=O)C2(F)CC2)C(C)(C)C)c(OCCOCCOCCOCCOCCNC(=O)O[C@H]2C[C@@H](C)C=C3C=C[C@H](C)[C@H](CC[C@@H]4C[C@@H](O)CC(=O)O4)[C@H]32)c1` [Compound 26, (1S,3R,7S,8S,8aR)-8-(2-((2R,4R)-4-hydroxy-6-oxotetrahydro-2H-pyran-2-yl)ethyl)-3,7-dimethyl-1,2,3,7,8,8a-hexahydronaphthalen-1-yl (14-(2-(((2S,4R)-1-((S)-2-(1-fluorocyclopropane-1-carboxamido)-3,3-dimethylbutanoyl)-4-hydroxypyrrolidine-2-carboxamido)methyl)-5-(4-methylthiazol-5-yl)phenoxy)-3,6,9,12-tetraoxatetradecyl)carbamate], the DC50 is below 50 nM.

Broadly, the DC50 is the midpoint of the concentration-degradation curve.
